Experimental data taken from patent US20240343699A1, “DERIVATIVES OF SUBSTITUTED MORPHOLINES AND USES THEREOF” (Supernus Pharmaceuticals, Inc., priority 2023, published 2024).
“Also recorded” adds a separate entry of the source.

Columns and labels:
[1] = system: prepulse inhibition; assay: Prepulse inhibition (PPI) of the auditory startle response, apomorphine-impairment model
Protocol: Four standard startle chambers (San Diego Instruments, San Diego, CA) were used. […] The tube is mounted on a plastic frame, under which a piezoelectric accelerometer is mounted, which records and transduces the motion of the tube. Three days before drug testing the experimental subjects were each placed in one of the startle test chambers for a period of 10 minutes (without any startle stimuli) as an initial period of acclimation to the apparatus. Two days before drug testing the animals were again placed in the test chamber and then exposed to 12 startle stimuli and to each prepulse level 3 times (see below). This procedure was done to reduce the highly variable responses to the initial exposures to the startle stimuli as well as to ensure that the prepulse stimuli (alone) had no significant effect on the startle response. One day before drug testing, a full 60 trial PPI test session (as subsequently described for the drug testing experiments, see below) was conducted for all experimental subjects.
On the day of drug testing the rats were transported to the startle chamber room and left undisturbed for at least 30 min. […] After this period, the rats received 12 startle trials, 12 no-stimulus trials, and 12 trials of each of the prepulse/startle trials (see below) for a total of 60 trials. The intertrial interval ranged from 10 to 30 s, and the total session lasted about 25-30 min. The startle trials consisted of single 120 dB white noise bursts lasting 20 ms.
The prepulse inhibition trials consisted of a prepulse (20 ms burst of white noise with intensities of 75, 80, or 85 dB) followed, 100 ms later, by a startle stimulus (120 dB, 20 ms white noise). During the no-stimulus trial, no startle noise was presented, but the movement of the rat was recorded. This represented a control trial for detecting differences in overall activity. The 60 different trials were presented pseudo-randomly, ensuring that each trial was presented 12 times and that no two consecutive trials were identical. The resulting movement of the rat in the startle chamber was measured during 100 ms after startle stimulus onset (sampling frequency 1 kHz), rectified, amplified, and fed into a computer that determined the maximal response that occurred during the 100-ms period. Basal startle amplitude was determined as the mean amplitude of the 12 startle trials. Prepulse inhibition was calculated according to the formula 100−100%×(PPx/P120), in which PPx is the mean of the 12 prepulse inhibition trials (i.e., for each individual prepulse level), and p120 is the basal startle amplitude. The average level of PPI was also calculated (average of the responses to pp75, pp80, or pp85) and analyzed separately.

[2] = Stability in human gut microbiota (fecal matter); type: in vitro ADME; details: pH 6 and 7.4, all time points
Protocol: (§1) Stability in Rat and Human Gut Microbiota. Rat fecal material was obtained and weighed. One capsule of the raw probiotics was crushed and weighed prior to use. The weighed samples were then solubilized in PBS at pH 6.0 and 7.4 to extract microorganisms. The samples were centrifuged at 18,000×g for 10 min to remove particulates and the supernatant was used to evaluate test article stability. An aliquot (50 μL) of the COMPOUND A stock solution was added to the fecal extract (final concentration 0.5 mM) and allowed to incubate at 37° C. Aliquots were collected at 0, 15, 30, 60, and 120 min and analyzed by LC/MS/MS to determine stability of the parent molecule. The collected sample was quenched in acetonitrile/0.1% formic acid mixture.

[3] = PK after single PO administration of COMPOUND A
[4] = system: recognition memory; assay: Novel object recognition, scopolamine-impairment model, 3 hr retention interval
[5] = Stability in rat gut microbiota (fecal matter); type: in vitro ADME; details: pH 6 and pH 7.4, 0.5 mM
Protocol: as §1

[6] = Stability in fluid matrices SGF, SIF and PBS; type: physicochemical; details: 37° C.
Protocol: Simulated Gastric Fluid (SGF) was prepared with 34.2 mM NaCl, 80 μM sodium taurocholate, 20 μM of L-alpha phosphatidylcholine/lecithin, and 0.1 mg/mL of Pepsin. 1 M HCl was added dropwise to adjust the pH to 1.96. Simulated Intestinal Fluid (SIF) was prepared with sodium phosphate monobasic, 105.9 mM NaCl, […] sodium taurocholate, and […] of L-alpha phosphatidylcholine/lecithin. 1 N NaOH was added dropwise to adjust the pH to 5.98. Phosphate buffered saline (PBS) at pH 6.0 was made by titrating PBS at pH 7.4 with 1 M HCl.
Stability of Test Articles at Different pH Values. 10 mM stock solutions of COMPOUND A were prepared in DMSO. From this stock solution, a single concentration in a 10 μL aliquot was added to three fluid matrices: SGF at pH 2.0 (gastric), SIF at pH 6.0 (upper intestine), and PBS at 7.4 (systemic). The final volume was 1 mL (0.1 mM). The preparations were then incubated at 37° C. and samples were collected at 0, 15, 30, 60, and 120 min for analysis of parent material by LC/MS/MS. The collected sample was quenched in acetonitrile/0.1% formic acid mixture. Red Blood Cell (RBC): Human and rat blood were centrifuged to separate out red blood cells at […] for 15 min. The upper plasma level was aspirated with a micropipette and placed in a bleach solution for disposal. The RBC pellet was resuspended in sterile isotonic saline. The pellet was gently resuspended by rocking the tube. The sample was then centrifuged again to collect the RBC pellet and then resuspended and washed one more time following the same procedure. A total of three was done. Following the last wash and centrifugation, the RBCs were resuspended with PBS; and mixed by inversion. Aliquots of the resuspended and washed RBCs were then placed into 4 reaction tubes. These tubes were centrifuged to collect the RBCs. The fluid level was marked on each tube, then the supernatant was aspirated off and the cells resuspended with room temperature PBS pH 7.4 to the original mark. An aliquot of the RBC suspension was added to four sterile tubes containing PBS pH 7.4 at room temperature.

[7] = Stability in human plasma with protease inhibitor cocktail and individual amidase/esterase inhibitors; type: in vitro ADME
Protocol: Plasma Preparation. Whole blood was centrifuged at 1174×g for 30 min. Aliquots of the supernatant were then transferred to 5 mL centrifuge tubes.
Stability of COMPOUND A in Human and Rat Plasma (circulating enzymes) in the Presence of Protease Inhibitor Cocktail. COMPOUND A was added to plasma with and without protease inhibitor cocktail and incubated to study inhibition of test article (COMPOUND A) degradation. […] Plasma with and without inhibitor cocktail was aliquoted into 1.5 mL tubes to a volume of 950 μL, then preincubated for 15 min. An aliquot (50 μL) of test article stock solution was added to plasma with and without inhibitor and tubes were vortexed then incubated at 37° C. Degradation began with the addition of test article. Aliquots (50 μL) were taken at 0, 15, 30, 60, and 120 min after being vortexed and were quenched in 150 μL acetonitrile/0.1% formic acid solution and briefly vortexed then immediately frozen at −80° C. Stability was determined by measuring loss of parent compound using LC/MS/MS methods. Each exposure condition and time point were done in triplicate.
Stability of COMPOUND A in Human and Rat Plasma (circulating enzymes) in the Presence of Individual Protease Inhibitors. In addition to using a cocktail of protease inhibitors, individual inhibitors were used in plasma. […] Stability was determined by measuring loss of parent compound using LC/MS/MS methods. […]

[8] = COMPOUND C 60 mg/kg PO + apomorphine
[9] = COMPOUND C 90 mg/kg PO + apomorphine
[10] = COMPOUND C 120 mg/kg PO + apomorphine

| Structure (SMILES) | % PPI (mean ± SEM) [1, 8] [%] | Acoustic Startle (AU) (mean ± SEM) [1, 8] | % PPI (mean ± SEM) [1, 9] [%] | Acoustic Startle (AU) (mean ± SEM) [1, 9] | % PPI (mean ± SEM) [1, 10] [%] | Acoustic Startle (AU) (mean ± SEM) [1, 10] | attenuation of the effects of apomorphine on PPI ([1]; COMPOUND C 60, 90, 120 mg/kg PO) | amount of parent compound in human fecal matter [2] [%] | Clinical observation (tolerability) ([3]; 60 or 120 mg/kg PO) | enantiomer R(+)-VLX in plasma ([3]; COMPOUND A 60 or 120 mg/kg PO, LLOQ 1.5 ng/mL) | plasma concentration of the derivative itself ([3]; COMPOUND A 60 or 120 mg/kg PO, LLOQ 3 ng/mL) | d2 ratios: effect on scopolamine impairment ([4]; COMPOUND A 90 mg/kg p.o. + scopolamine) | preference for the novel object (exploration times) ([4]; COMPOUND A 30, 60, and 90 mg/kg p.o. + scopolamine, 3 hr delay) | stability in rat fecal matter [5] | stability in PBS (amount of parent compound) ([6]; PBS pH 7.4, 0.1 mM) | stability in SGF (LC/MS/MS peak area of parent) ([6]; SGF pH 2.0, 0.1 mM, 0-120 min) | amount of parent compound in SIF ([6]; SIF pH 6.0, 0.1 mM, all time points) [%] | degradation accounted for by esterase and amidase enzymes ([7]; fresh human and rat plasma with amidase and esterase inhibitors) [%] | Human proteolytic activity relative to rat proteolytic activity ([7]; plasma, 60 min incubation) |
| --- | --- | --- | --- | --- | --- | --- | --- | --- | --- | --- | --- | --- | --- | --- | --- | --- | --- | --- | --- |
| CCOc1ccccc1OC[C@@H]1CN(C(=O)OC(OC(=O)[C@H](N)C(C)C)C(C)C)CCO1 (stereo partly shown) [COMPOUND C] | 43.6 ± 5.0 | 1719.1 ± 211.2 | 37.2 ± 5.6 | 1579.9 ± 171.1 | 43.7 ± 3.7 | 1856.8 ± 245.8 | None of the doses of COMPOUND C were associated with a statistically significant attenuation | – | – | – | – | – | – | – | – | – | – | – | – |
| CCOc1ccccc1OC[C@@H]1CN(C(=O)OC(C)OC(=O)[C@@H](N)C(C)C)CCO1 (stereo partly shown) [COMPOUND A] | – | – | – | – | – | – | – | ~100 | well tolerated | not detectable at most time points | not detectable; also recorded: below LLOQ in all the samples collected | significantly attenuated this effect of scopolamine | significant (p<0.05) preference for the novel object | time-dependent decrease in the amount of parent compound | time-dependent decrease in the amount of parent compound | time-dependent decrease in the LC/MS/MS peak area until 20 min | 100 | ~100 | about 3 fold |
